Reference: PMC8061427 (Science translational medicine, 2020)
Several values for one entry are separate records, joined by “and”; a condition that tells them apart may be missing. Equal values may be shown once. One block for each compound: values may come before it. Where no end group is shown, it is not given here. The star is where a group is joined. Myristoyl = CCCCCCCCCCCCCC(=O)*

How the values were obtained:
[1] = lipid micellar formulation; cited from earlier work
mice [2] = experiment: Mouse tail bleeding time test; conditions: cangrelor 30 μg/kg; for effect on mouse tail bleeding time: Fig. 5, M3mP6 HLPN 5 or 10 μmol/kg, high dose aspirin 36 mg/kg i.p., clopidogrel 4 mg/kg, ticagrelor 3 mg/kg
C57BL/6 mice = experiment: FeCl3-induced mouse carotid artery thrombosis model; format: in vivo; conditions: for effect on occlusive thrombus formation: 7.5% FeCl3
[3] = no reference given; cited from earlier work
mice [4] = experiment: Laser-induced cremaster arteriolar thrombosis model in mice; format: in vivo, mouse; conditions: pre-injected intravenously; M3mP6 HLPN 10 μmol/kg, cangrelor 30 μg/kg; 27 injury sites each

Compound: Myristoyl-FEEERA [mP6]
- peptide concentration achieved in lipid micellar suspension [1]: 1 mM and < 1 mM

Compound: COC(=O)[C@H](c1ccccc1Cl)N1CCc2sccc2C1 [clopidogrel]
- effect on occlusive thrombus formation (C57BL/6 mice; Fig. 4C, M3mP6 HLPN 10 μmol/kg, clopidogrel 4 mg/kg oral 2 hours before, ticagrelor 3 mg/kg oral 2 hours before): delayed occlusive thrombus formation following FeCl3-induced injury but was less effective than M3mP6 HLPN

Compound: CC(=O)Oc1ccccc1C(=O)O [aspirin]
- effect on mouse tail bleeding time (mice [2]): increased tail bleeding time
- effect on occlusive thrombus formation (C57BL/6 mice; Fig. 4B, M3mP6 HLPN 5 μmol/kg, aspirin 36 mg/kg i.p. 1 hour before): no obvious effect

Now from value to compound, other results behind:

- effect on mouse tail bleeding time (mice [2]): increased tail bleeding time
Compound: CCCSc1nc(N[C@@H]2C[C@H]2c2ccc(F)c(F)c2)c2nnn([C@@H]3C[C@H](OCCO)[C@@H](O)[C@H]3O)c2n1 [ticagrelor]

- effect on mouse tail bleeding time (mice [2]): increased tail bleeding time
Compound: CSCCNc1nc(SCCC(F)(F)F)nc2c1ncn2[C@@H]1O[C@H](COP(=O)(O)OP(=O)(O)C(Cl)(Cl)P(=O)(O)O)[C@@H](O)[C@H]1O [cangrelor]
- tail bleeding time (mice [2]; post-injury injection, M3mP6 HLPN 10 μmol/kg): prolonged tail bleeding time
- overall effect on occlusive thrombosis (C57BL/6 mice; Fig. 4E, cangrelor 30 μg/kg retro-orbital, M3mP6 HLPN 10 μmol/kg): moderately better than M3mP6 HLPN
- plasma half-life [3]: 3 to 6 min
- effect on platelet thrombus formation (mice [4]): potently inhibiting platelet thrombus formation
